Measured values reported in US11192916B2, “Pentacyclic triterpene compound and preparation method therefor, and pharmaceutical composition and use thereof” (SHANGHAI INSTITUTE OF MATERIA MEDICA, CHINESE ACADEMY OF …, priority 2017, dated 2021).

What was measured:
Format in all cases: cell-based
[1] = biological target: T1, FXR (Homo sapiens, UniProt Q96RI1); experiment: FXR antagonist test, luciferase reporter gene experiment against agonist GW4064; conditions: antagonistic activity; HEK293 cells co-transfected with LBD(hFXR)-pbind and luciferase reporter; GW4064 300 nM
T1 sequence (Q96RI1 262-486 limits assumed): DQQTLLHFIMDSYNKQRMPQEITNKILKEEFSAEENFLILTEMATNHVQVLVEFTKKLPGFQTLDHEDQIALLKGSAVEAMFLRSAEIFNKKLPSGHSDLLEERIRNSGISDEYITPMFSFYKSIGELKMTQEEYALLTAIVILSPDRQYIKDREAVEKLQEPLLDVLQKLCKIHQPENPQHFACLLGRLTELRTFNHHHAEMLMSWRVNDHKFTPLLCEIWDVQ
From the text: The antagonistic activity of the compound against FXR was detected by the reporter gene experiment. FXR is a nuclear receptor activated by bile acids and has regulatory effects on glucose metabolism and lipid metabolism in the body. After FXR is activated, it can initiate the expression of a series of genes and respond to external stimuli. The Luciferase reporter gene system is a reporting system for detecting firefly luciferase activity. Luciferase can catalyze the oxidation of Luciferin, a fluorescent substrate, and cause emition of biological fluorescence at the same time. The amount of luciferase expression can be determined by detecting the fluorescence intensity. In this experiment, the test compound may target FXR, and GW4064 is a known FXR agonist, which initiates the expression of a series of genes after binding to the FXR ligand-binding domain. Therefore, the reporter gene experiment was used. Two plasmids, LBD (hFXR)-pbind and PGL4.31-Luc were co-transfected into HEK293 cells to express the FXR ligand-binding domain in the cells. Two test compounds were separately added and a blank control group was set, and then an agonist was added. If the compound has affinity for FXR, it will compete with the agonist for binding to the FXR ligand-binding domain and affect the expression of luciferase in pGL4.31-Luc. The Envision2101 multi-well microplate reader was used to detect the chemiluminescence count value, and the effect of the test compound on FXR activity was judged based on the fluorescence intensity. 2 μg of the chimeric plasmid LBD(hFXR)-pbind and 2 μg of Luciferase reporter plasmid were co-transfected into 2×10^6 HEK293 cells and inoculated in white opaque 96-well plates. After 24 h, the culture medium was discarded, and the test compound (diluted with serum-free culture medium, containing 1% DMSO) was added and incubated for 1 h. Then FXR agonist GW4064 (300 nM) was added to stimulate for 6 h, and finally luciferase substrate was added and shaken to lyse. Luminescence was measured on the Envision 2104 microplate reader.

[2] = biological target: T2, TGR5 (Homo sapiens, UniProt Q8TDU6); experiment: TGR5 agonist test, HTRF cAMP detection in HEK293 cells transiently transfected with TGR5; conditions: Table 2, TGR5 agonistic activity, HEK293 cells expressing TGR5, up to 100 μM, read-out: FXR (IC50/μM)
T2 construct: expressed in transfected cells; host or cells: HEK293
T2 sequence (Q8TDU6 1-330): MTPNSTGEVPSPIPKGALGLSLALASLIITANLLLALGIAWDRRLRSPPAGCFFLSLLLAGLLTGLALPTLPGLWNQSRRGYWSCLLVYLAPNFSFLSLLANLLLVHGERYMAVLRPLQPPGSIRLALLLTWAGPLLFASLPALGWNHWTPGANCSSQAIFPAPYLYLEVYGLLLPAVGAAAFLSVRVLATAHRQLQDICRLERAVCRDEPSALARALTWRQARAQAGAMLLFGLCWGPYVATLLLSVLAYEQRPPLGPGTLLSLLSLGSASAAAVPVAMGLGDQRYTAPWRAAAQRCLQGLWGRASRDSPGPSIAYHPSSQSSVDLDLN
From the text: HEK293 cells transiently transfected with TGR5 were stimulated with compounds, and then homogeneous time-resolved fluorescence (HTRF) was used to detect whether these compounds could agitate TGR5.
TGR5 is a bile acid membrane receptor and a member of the GPCR family. It regulates the metabolism of bile acids, lipids, and sugars. TGR5 is coupled to the Gs protein, and after activation, it further activates adenylate cyclase to produce a second messenger cAMP. HTRF is a method for detecting the content of cAMP and combines two techniques of fluorescence resonance energy transfer (FRET) and time-resolved fluorescence (TRF). […] FRET induces the acceptor to generate fluorescence, and Eu has a long fluorescence lifetime. TRF can distinguish the fluorescent signal by the acceptor from the fluorescent background. The fluorescent donor is bound to a cAMP-specific antibody, and cAMP is simultaneously labeled with a fluorescent acceptor. The donor and acceptor approach to each other through the antigen-antibody specific recognition reaction to generate FRET, and the cAMP produced by the cell competes with the labeled cAMP for antibody binding sites, resulting in the decrease of fluorescence intensity.
4.1. The test compound was prepared with 1× PBS into a solution having 2 times of the final concentration. The final concentration was 100 μM, 10 μM, 1 μM, 100 nM, 10 nM, 1 nM, 0.1 nM, DMSO (each well contains 1% DMSO).
4.2.2. The cell density was determined. At the same time, IBMX (final concentration of […]) was added into the serum-free culture medium, and the number of cells was 2000/5 μl/well.
4.2.3. 5 μl of the test compound and 5 μl of the cell suspension containing IBMX were added and mixed. A 384-well plate was sealed with a foil paper. The mixtures were protected from light and reacted at room temperature for […].
4.3.1 1 μl cAMP-d2 was diluted to 20 μl by using cAMP&cGMP conjugates & lysis buffer. 4.3.2 1 μl anti-cAMP-Cryptate was diluted to 20 μl by using cAMP&cGMP conjugates&lysis buffer.
4.3.3 After 30 minutes, 5 μl (1.3.1) and 5 μl (1.3.2) were added and a 384-well plate was sealed with a foil paper. The mixtures were protected from light and reacted at room temperature.
4.4. After 60 minutes, the values were detected by Envision 2101 microplate reader (PerkinElmer).

[3] = test system: HEK293 cells; experiment: CCK-8 cytotoxicity test; conditions: for CCK-8 Assay (30 μM): cytotoxicity on HEK293 cells at 30 μM; for CCK-8 Assay (100 μM): cytotoxicity on HEK293 cells at 100 μM
Protocol: The cytotoxicity of the compounds was evaluated by using CCK-8 experiment. CCK-8 is an indicator of redox reaction. In the presence of the electron carrier 1-Methoxy PMS, dehydrogenase in living cells is used to catalyze the tetrazolium salt WST-8 to form formazan dye. The production amount of formazan dye has a linear relationship with the number of living cells. The light absorption value measured at 450 nm using a microplate reader can indirectly reflect the number of living cells. Therefore, this method is used for the activity detection of some bioactive factors, large-scale anti-tumor drug screening, cell proliferation test, cytotoxicity test, and drug sensitivity test. This experiment is used to evaluate the cytotoxicity of the compounds. 2 μg of the chimeric plasmid LBD(hFXR)-pbind and 2 μg of Luciferase reporter plasmid were co-transfected into 2×10^6 HEK293 cells and inoculated in transparent 96-well plates. After 24 h, the culture medium was discarded and the test compound (diluted in serum-free culture medium, containing 1% DMSO) was added and incubated for 1 h, then FXR agonist GW4064 (300 nM) was added to agitate for 4 h. 10 μl detection reagent for CCK-8 was added to each well. After 2 hours, absorbance values at 450 nm and 650 nm (as reference wavelength) were detected with Flextation instrument.

Compound	IC50 [1]	EC50 [2]	CCK-8 Assay (30 μM) [3]	CCK-8 Assay (100 μM) [3]
CC(C)[C@@H]1CC[C@]2(C(=O)NCC(=O)O)CC[C@]3(C)C(CCC4[C@@]5(C)CC[C@@H](O)C(C)(C)C5CC[C@]43C)C12 (stereo partly drawn) [Compound C1]	13.9 µM	> 100 µM	no	no
CC(=O)O[C@@H]1CC[C@@]2(C)C(CC[C@]3(C)C2CCC2C4[C@H](C(C)C)CC[C@]4(C(=O)NCC(=O)O)CC[C@]23C)C1(C)C (stereo partly drawn) [Compound C2]	6.31 µM	> 100 µM	no	no
CCC(=O)O[C@@H]1CC[C@@]2(C)C(CC[C@]3(C)C2CCC2C4[C@H](C(C)C)CC[C@]4(C(=O)NCC(=O)O)CC[C@]23C)C1(C)C (stereo partly drawn) [Compound C3]	3.89 µM	> 100 µM	no	no
CCCC(=O)O[C@@H]1CC[C@@]2(C)C(CC[C@]3(C)C2CCC2C4[C@H](C(C)C)CC[C@]4(C(=O)NCC(=O)O)CC[C@]23C)C1(C)C (stereo partly drawn) [Compound C4]	2.05 µM	> 100 µM	no	no
CCCC(=O)O[C@H]1CC[C@@]2(C)C(CC[C@]3(C)C2CCC2C4[C@H](C(C)C)CC[C@]4(C(=O)NCC(=O)O)CC[C@]23C)C1(C)C (stereo partly drawn) [Compound C12]	8.27 µM	> 100 µM	no	no
CC(C)[C@@H]1CC[C@]2(C(=O)NCC(=O)O)CC[C@]3(C)C(CCC4[C@@]5(C)CC[C@@H](OC(=O)c6cccnc6)C(C)(C)C5CC[C@]43C)C12 (stereo partly drawn) [Compound C16]	5.67 µM	> 100 µM	no	no
